This note sets out measurements from patent publication US7973061B2, “Anaplastic lymphoma kinase modulators and methods of use” (Exelixis, Inc., priority 2004, dated 2011).

For this test, the target named is T1, ALK (baculovirus expressed human ALK kinase domain F1098-K1410) (Homo sapiens, UniProt Q9UM73).
T1 construct: human ALK kinase domain F1098-K1410; made in house
In words: biochemical. To be noted: 1 μM ATP, 4 μM poly-AEKY, 12 nM ALK, 2 hours at ambient temperature; read-out: ALK IC50. The method, boiled down:
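Baculovirus-expressed human ALK kinase domain (F1098-K1410) was run in a luciferase-coupled chemiluminescent format, with ATP near its KM. After 2 h at ambient temperature, remaining ATP was read by luciferase-luciferin luminescence. IC50 came from 10-point dose-response curves fitted to a four-parameter equation with Hill slope.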

T1 sequence (Q9UM73 1098-1410): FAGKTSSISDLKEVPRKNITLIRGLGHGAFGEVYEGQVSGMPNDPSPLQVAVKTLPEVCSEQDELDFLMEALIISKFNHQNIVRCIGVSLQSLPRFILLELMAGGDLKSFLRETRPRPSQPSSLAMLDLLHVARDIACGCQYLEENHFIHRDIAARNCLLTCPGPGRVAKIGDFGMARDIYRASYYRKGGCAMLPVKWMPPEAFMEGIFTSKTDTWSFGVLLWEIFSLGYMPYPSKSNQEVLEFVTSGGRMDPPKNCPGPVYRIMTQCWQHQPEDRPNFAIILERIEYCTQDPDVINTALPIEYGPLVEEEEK

`CN(CCCNC(=O)c1csc(CNC(=O)COc2ccc(OC(F)(F)F)cc2)n1)c1ccccc1` [Entry 107, N-{3-[methyl(phenyl)amino]propyl}-2-({[({4-[(trifluoromethyl)oxy]phenyl}oxy)acetyl]amino}methyl)-1,3-thiazole-4-carboxamide]: the half-maximal inhibitory concentration (IC50) (as a rule, the concentration at which inhibition is half-maximal) fell in the range of 50 to 500 nM.

Consider `O=C(COc1ccc(OC(F)(F)F)cc1)NCc1nc(C(=O)NCC(c2ccccc2)c2ccccc2)cs1` [Entry 18, N-(2,2-diphenylethyl)-2-({[({4-[(trifluoromethyl)oxy]phenyl}oxy)acetyl]amino}methyl)-1,3-thiazole-4-carboxamide], for which the IC50 is < 50 nM.

On to `Cc1ccc(CCNC(=O)c2csc(CNC(=O)COc3ccc(OC(F)(F)F)cc3)n2)cc1C` [Entry 56, N-[2-(3,4-dimethylphenyl)ethyl]-2-({[({4-[(trifluoromethyl)oxy]phenyl}oxy)acetyl]amino}methyl)-1,3-thiazole-4-carboxamide], for which the IC50 is 50 to 500 nM.

Take `COc1cccc(CCNC(=O)c2csc(CNC(=O)COc3ccc(OC(F)(F)F)cc3)n2)c1` [Entry 40, N-{2-[3-(methyloxy)phenyl]ethyl}-2-({[({4-[(trifluoromethyl)oxy]phenyl}oxy)acetyl]amino}methyl)-1,3-thiazole-4-carboxamide]: the IC50 fell in the range of 50 to 500 nM.

For `O=C(COc1ccc(OC(F)(F)F)cc1)NCc1nc(C(=O)NCCc2cccs2)co1` [Entry 159, N-[2-(2-thienyl)ethyl]-2-({[({4-[(trifluoromethyl)oxy]phenyl}oxy)acetyl]amino}methyl)-1,3-oxazole-4-carboxamide], the IC50 fell in the range of 50 to 500 nM.

Regarding `O=C(C/C=C/c1ccccc1)NCc1nc(C(=O)NCCc2cccc(Cl)c2)cs1` [Entry 208, N-[2-(3-chlorophenyl)ethyl]-2-({[(3E)-4-phenylbut-3-enoyl]amino}methyl)-1,3-thiazole-4-carboxamide], the 50% inhibitory concentration (IC50) was in the range of 50 to 500 nM.

Regarding `CC(C)c1ccc(CC(=O)NCc2nc(C(=O)NCCc3ccccc3F)cs2)cc1` [Entry 114, N-[2-(2-fluorophenyl)ethyl]-2-[({[4-(1-methylethyl)phenyl]acetyl}amino)methyl]-1,3-thiazole-4-carboxamide], the IC50 fell in the range of 50 to 500 nM.

Consider `CC(CNC(=O)c1coc(CNC(=O)COc2ccc(OC(F)(F)F)cc2)n1)c1ccccc1` (stereo not shown) [Entry 259, N-(2-phenylpropyl)-2-({[({4-[(trifluoromethyl)oxy]phenyl}oxy)acetyl]amino}methyl)-1,3-oxazole-4-carboxamide], for which the IC50 fell in the range of 500 to 2000 nM.

In the case of `O=C(COc1ccc(OC(F)(F)F)cc1)NCc1cc(C(=O)NCCc2cccc(Cl)c2)no1` [Entry 299, N-[2-(3-chlorophenyl)ethyl]-5-({[({4-[(trifluoromethyl)oxy]phenyl}oxy)acetyl]amino}methyl)isoxazole-3-carboxamide], the IC50 is > 2000 nM.

Regarding `CCc1ccc(NC(=O)NCc2nc(C(=O)NCCc3ccccc3F)cs2)cc1` [Entry 101, 2-[({[(4-ethylphenyl)amino]carbonyl}amino)methyl]-N-[2-(2-fluorophenyl)ethyl]-1,3-thiazole-4-carboxamide], the IC50 was 50 to 500 nM.

For `COc1ccccc1CNC(=O)c1csc(CNC(=O)COc2ccc(OC(F)(F)F)cc2)n1` [Entry 17, N-{[2-(methyloxy)phenyl]methyl}-2-({[({4-[(trifluoromethyl)oxy]phenyl}oxy)acetyl]amino}methyl)-1,3-thiazole-4-carboxamide], the IC50 is < 50 nM.

In the case of `Cc1cc(Cl)cc(Cl)c1CNC(=O)c1csc(CNC(=O)COc2ccc(OC(F)(F)F)cc2)n1` [Entry 166, N-[(2,4-dichloro-6-methylphenyl)methyl]-2-({[({4-[(trifluoromethyl)oxy]phenyl}oxy)acetyl]amino}methyl)-1,3-thiazole-4-carboxamide], the IC50 was 50 to 500 nM.

As to `C#CC1(NC(=O)c2csc(CNC(=O)COc3ccc(OC(F)(F)F)cc3)n2)CCCCC1` [Entry 180, N-(1-ethynylcyclohexyl)-2-({[({4-[(trifluoromethyl)oxy]phenyl}oxy)acetyl]amino}methyl)-1,3-thiazole-4-carboxamide], the IC50 lay in the range of 50 to 500 nM.

For `Cc1ccc(CCNC(=O)c2csc(CNC(=O)COc3ccc(OC(F)(F)F)cc3)n2)cc1` [Entry 36, N-[2-(4-methylphenyl)ethyl]-2-({[({4-[(trifluoromethyl)oxy]phenyl}oxy)acetyl]amino}methyl)-1,3-thiazole-4-carboxamide], the IC50 lay in the range of 50 to 500 nM.

On to `O=C(COc1ccc(OC(F)(F)F)cc1)NCc1nc(C(=O)NCc2cccc(F)c2)cs1` [Entry 127, N-[(3-fluorophenyl)methyl]-2-({[({4-[(trifluoromethyl)oxy]phenyl}oxy)acetyl]amino}methyl)-1,3-thiazole-4-carboxamide], for which the IC50 lay within 50 to 500 nM.

For the compound `O=C(COc1ccc(OC(F)(F)F)cc1)NCc1nc(C(=O)NCCc2ccc(Br)cc2)co1` [Entry 231, N-[2-(4-bromophenyl)ethyl]-2-({[({4-[(trifluoromethyl)oxy]phenyl}oxy)acetyl]amino}methyl)-1,3-oxazole-4-carboxamide], the concentration for half-maximal inhibition (IC50) lay in the range of 500 to 2000 nM.

As to `O=C(COc1ccc(OC(F)(F)F)cc1)NCc1nc(C(=O)N[C@@H]2C[C@H]3CC[C@@H]2C3)cs1` [Entry 105, N-[(1R,2R,4S)-bicyclo[2.2.1]hept-2-yl]-2-({[({4-[(trifluoromethyl)oxy]phenyl}oxy)acetyl]amino}methyl)-1,3-thiazole-4-carboxamide], the 50% inhibitory concentration (IC50) was in the range of 50 to 500 nM.

On to `O=C(COc1ccc(OC(F)(F)F)cc1)NCc1nc(C(=O)NCc2ccc(Cl)c(Cl)c2)co1` [Entry 291, N-[(3,4-dichlorophenyl)methyl]-2-({[({4-[(trifluoromethyl)oxy]phenyl}oxy)acetyl]amino}methyl)-1,3-oxazole-4-carboxamide], for which the IC50 is 500 to 2000 nM.

In the case of `O=C(COc1ccc(OC(F)(F)F)cc1)NCc1nc(C(=O)N[C@H]2CCC[C@@H]2OCc2ccccc2)cs1` [Entry 103, N-{(1S,2S)-2-[(phenylmethyl)oxy]cyclopentyl}-2-({[({4-[(trifluoromethyl)oxy]phenyl}oxy)acetyl]amino}methyl)-1,3-thiazole-4-carboxamide], the IC50 is 50 to 500 nM.

For `CC(NC(=O)c1coc(CNC(=O)COc2ccc(OC(F)(F)F)cc2)n1)c1cccc2ccccc12` (stereo not shown) [Entry 99, N-(1-naphthalen-1-ylethyl)-2-({[({4-[(trifluoromethyl)oxy]phenyl}oxy)acetyl]amino}methyl)-1,3-oxazole-4-carboxamide], the IC50 was in the range of 50 to 500 nM.

In the case of `O=C(COc1ccc(OC(F)(F)F)cc1)NCc1nc(C(=O)N[C@H]2CCCc3ccccc32)cs1` [Entry 79, N-[(1S)-1,2,3,4-tetrahydronaphthalen-1-yl]-2-({[({4-[(trifluoromethyl)oxy]phenyl}oxy)acetyl]amino}methyl)-1,3-thiazole-4-carboxamide], the IC50 fell in the range of 50 to 500 nM.

Regarding `COc1cccc(CNC(=O)c2csc(CNC(=O)COc3ccc(C(C)C)cc3)n2)c1OC` [Entry 125, N-{[2,3-bis(methyloxy)phenyl]methyl}-2-{[({[4-(1-methylethyl)phenyl]oxy}acetyl)amino]methyl}-1,3-thiazole-4-carboxamide], the IC50 lay within 50 to 500 nM.

As to `O=C(COc1ccc(OC(F)(F)F)cc1)NCc1nc(C(=O)NCCc2cccc(F)c2)cs1` [Entry 14, N-[2-(3-fluorophenyl)ethyl]-2-({[({4-[(trifluoromethyl)oxy]phenyl}oxy)acetyl]amino}methyl)-1,3-thiazole-4-carboxamide], the IC50 is < 50 nM.

With `O=C(COc1ccc(OC(F)(F)F)cc1)NCc1nc(C(=O)NCc2ccco2)cs1` [Entry 249, N-(furan-2-ylmethyl)-2-({[({4-[(trifluoromethyl)oxy]phenyl}oxy)acetyl]amino}methyl)-1,3-thiazole-4-carboxamide], the IC50 fell in the range of 500 to 2000 nM.

Take `CCN(CCNC(=O)c1csc(CNC(=O)COc2ccc(OC(F)(F)F)cc2)n1)c1cccc(C)c1` [Entry 124, N-{2-[ethyl(3-methylphenyl)amino]ethyl}-2-({[({4-[(trifluoromethyl)oxy]phenyl}oxy)acetyl]amino}methyl)-1,3-thiazole-4-carboxamide]: the IC50 fell in the range of 50 to 500 nM.

For the compound `O=C(COc1ccc(OC(F)(F)F)cc1)NCc1nc(C(=O)NCCc2ccc(Cl)cc2Cl)cs1` [Entry 160, N-[2-(2,4-dichlorophenyl)ethyl]-2-({[({4-[(trifluoromethyl)oxy]phenyl}oxy)acetyl]amino}methyl)-1,3-thiazole-4-carboxamide], the IC50 was 50 to 500 nM.

Take `COc1ccc(CCNC(=O)c2coc(CNC(=O)COc3ccc(OC(F)(F)F)cc3)n2)cc1` [Entry 224, N-{2-[4-(methyloxy)phenyl]ethyl}-2-({[({4-[(trifluoromethyl)oxy]phenyl}oxy)acetyl]amino}methyl)-1,3-oxazole-4-carboxamide]: the IC50 was in the range of 500 to 2000 nM.

Take `O=C(COc1ccc(I)cc1)NCc1nc(C(=O)NCCc2ccccc2F)cs1` [Entry 59, N-[2-(2-fluorophenyl)ethyl]-2-[({[(4-iodophenyl)oxy]acetyl}amino)methyl]-1,3-thiazole-4-carboxamide]: the IC50 lay within 50 to 500 nM.

As to `Cc1ccccc1CCNC(=O)c1csc(CNC(=O)COc2ccc(OC(F)(F)F)cc2)n1` [Entry 15, N-[2-(2-methylphenyl)ethyl]-2-({[({4-[(trifluoromethyl)oxy]phenyl}oxy)acetyl]amino}methyl)-1,3-thiazole-4-carboxamide], the IC50 was < 50 nM.

With `COc1ccc(CNC(=O)c2csc(CNC(=O)COc3ccc(OC(F)(F)F)cc3)n2)c(OC)c1` [Entry 120, N-{[2,4-bis(methyloxy)phenyl]methyl}-2-({[({4-[(trifluoromethyl)oxy]phenyl}oxy)acetyl]amino}methyl)-1,3-thiazole-4-carboxamide], the IC50 lay in the range of 50 to 500 nM.

For the compound `O=C(COc1cccc(Cl)c1)NCc1nc(C(=O)NCCc2cccc(Cl)c2)cs1` [Entry 161, N-[2-(3-chlorophenyl)ethyl]-2-[({[(3-chlorophenyl)oxy]acetyl}amino)methyl]-1,3-thiazole-4-carboxamide], the IC50 is 50 to 500 nM.
